The values that follow come from EP2681209B1, “COMPOUNDS AND METHODS FOR THE TREATMENT OF PAIN AND OTHER DISORDERS” (Aquilus Pharmaceuticals, Inc, priority 2011, dated 2012).

Series [1] in a line: In-vitro microsomal stability in human microsomes. The format is in vitro ADME. The note with it: 1 µM compound, human microsomes 0.3 mg/mL. On the procedure: Human and mouse microsomal stability was determined for select compounds following the method of Houston (Houston, JB; Biochem. Pharmacol. 47, (1994),1469).
1 µM concentration of compound and seperate human and mouse microsomes (0.3 mg/mL, BD bioscience) were used in the in-vitro assay. To ensure proper energy supply for microsomal degradation of compound, an energy regenerating system comprised of 100 mM potassium phosphate, 2mM NADPH, 3mM MgCl2, pH = 7.4. and the microsomal protein is added to each sample and the resulting suspension is then incubated in duplicate for 60 min at 37° C. in a rotary shaker. A control is run for each test agent in duplicate omitting NADPH to detect NADPH-free degradation. At T=0 and T= 60 min., an aliquot is removed from each experimental and control reaction and then mixed with an equal volume of ice-cold Stop Solution (consisting of 0.3% acetic acid in acetonitrile containing haloperidol and diclofenac as internal standards). […] The samples are then centrifuged to remove precipitated protein, and the supernatants are then analyzed by LC-MS/MS to determine the percentage of compound remaining. […] After separation on a C18 reverse phase HPLC column (Agilent, Waters, or equivalent) using an acetonitrile-water gradient system, peaks were analyzed by mass spectrometry (MS) using ESI ionization in MRM mode.

The target in series [2] is Catalytic domain of MMP-9 (human recombinant) (Homo sapiens, UniProt P14780). Put plainly: biochemical. The following applies: read-out: Average Percent Inhibition (MMP-9).
Method: A concentration of MMP inhibitor of the present invention was tested (1 microMolar) in duplicate runs. […] The mixture of enzyme and compound in assay buffer was then thoroughly mixed and incubated for 60 minutes at 37 °C. Upon the completion of incubation, the assay was started by the addition of 10 µM of fluorescent substrate DNP-Pro-Cha-Gly-Cys(Me)-His-Ala-Lys(N-Me-Abz)-NH2 [Cha = β -cyclohexylalanyl; Abz = 2-aminobenzoyl (anthraniloyl)] (Kd - 7 microMolar).
Another series relates to MMP-9. Put plainly: Gelatin zymography of mouse spinal cord for MMP-9 rebound effect. The format is in vivo, mice. The text has this:
There were three groups in the study comprising six mice for each group (Naive, control and compound 10 groups).

The next series relates to MMP-2. Put plainly: Gelatin zymography of mouse spinal cord for MMP-2 rebound effect. The format is in vivo, mice.
The next series has as its system CD-1 mice. Put plainly: Naloxone-precipitated morphine withdrawal mouse study, intrathecal administration. The note with it: i.t. 10 µl/mouse every 8 hours for 2.5 days with escalating IP morphine; naloxone 1 mg/kg s.c.; compared to control and vehicle. The format is in vivo. The text has this:
One can measure the effects of intrathecal (i.t.) or intraparitoneal (i.p.) administration of a matrix metallorproteinase (MMP) inhibitor in a mouse model of morphine analgesia, tolerance and withdrawal. The purpose of which is to measure the effects of a MMP inhibitor on 1) attenuating morphine tolerance in mice and 2) withdrawal behavior in naloxone-precipitated morphine withdrawal in mice. The animal model which was developed in the 1960's and refined in the early 1970's utilizes the opioid antagonist, naloxone to rapidly block the µ-opioid receptor to "precipitate" withdrawal behavior in rodents (Zachariou, V. et al.; Essential role for RGS9 in opiate action, PNAS, 100(23), p 13656-13661, (2003)). […]
Drug Administration & Morphine withdrawal Studies: The matrix metalloproteinase (MMP) inhibitors were dissolved in phosphate buffered saline (PBS) and dimethylsulfoxide (DMSO) and diluted in PBS (final concentration of DMSO for intrathecal administration was 10%). […] Two hours after the last morphine injection, naloxone (1 mg/kg) was administered s.c. Withdrawal behaviors were then monitored for 30 min, 1 hr after the naloxone injection. […]
MMP inhibitor effects on morphine withdrawal For testing the morphine withdrawal-like behavioral signs following intrathecal MMP inhibitor administration, the withdrawal symptoms were monitored for 30 minutes 1-2 h after naloxone administration. […]

Setting [3] is: 0.5 and 2 hours after naloxone precipitated withdrawal and cessation of compound administration, versus control.
Where [4] appears, read: after discontinuation of compound in naloxone precipitated withdrawal model.

“Also recorded” adds a separate entry of the source.

Sequence of Catalytic domain of MMP-9 (human recombinant) (P14780 107-444 limits assumed): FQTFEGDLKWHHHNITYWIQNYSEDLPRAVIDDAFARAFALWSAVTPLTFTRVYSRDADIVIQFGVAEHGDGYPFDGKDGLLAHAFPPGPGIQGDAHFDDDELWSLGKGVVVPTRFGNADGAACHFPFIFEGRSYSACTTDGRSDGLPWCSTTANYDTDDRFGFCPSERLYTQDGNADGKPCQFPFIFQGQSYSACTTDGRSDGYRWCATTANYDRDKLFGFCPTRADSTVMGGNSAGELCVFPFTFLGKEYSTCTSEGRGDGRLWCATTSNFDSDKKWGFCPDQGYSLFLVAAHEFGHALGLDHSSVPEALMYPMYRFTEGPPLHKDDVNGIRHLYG

The inhibition is the share of the control response that was lost under treatment. For the compound `Cc1ccc(C#Cc2ccc(S(=O)(=O)N[C@H](Cc3c[nH]c4ccccc34)C(=O)O)s2)cc1` [Compound 5, (R)-3-(1H-Indol-3-yl)-2-(5-p-tolylethynyl-thiophene-2-sulfonylamino)-propionic acid], in series [1] (60 min at 37° C), the “Mean Remaining Parent with NADPH (%)” value was 86%. Moreover, the “Mean Remaining Parent without NADPH (%)” value in series [1] (control omitting NADPH, at T = 60 minutes) is reported as 89%. In addition, the inhibition at 1 µM in series [2] was determined as 82%.

Turning to `[2H]C([2H])([2H])c1ccc(C#Cc2ccc(S(=O)(=O)N[C@H](Cc3c[nH]c4ccccc34)C(=O)O)s2)cc1` [Compound 10, (R)-3-(1H-Indol-3-yl)-2-[5-(4-trideuteromethyl-phenylethynyl)-thiophene-2-sulfonylamino]-propionic acid-(D3, 98%)], the “MMP-9 levels in spinal cord” value in the series with MMP-9 (setting [3]) is on record as “stayed the same or were slightly lower than the control”. Moreover, the “MMP-9 rebound effect due to discontinuation” value in the series on MMP-9 (setting [4]) is “No evidence of a MMP-2 and/or MMP-9 rebound effect”. The “MMP-2 levels in spinal cord” value with MMP-2 (setting [3]) is given as “stayed the same or were slightly lower than the control”. Moreover, the “MMP-2 rebound effect due to discontinuation” value in the series with MMP-2 (setting [4]) is “No evidence of a MMP-2 and/or MMP-9 rebound effect”. For the same compound, the “morphine withdrawal behavior (behavioral signs, overall opiate withdrawal score)” value in the series with CD-1 mice was “able to reduce overall morphine withdrawal behavior; also recorded: significantly attenuates behavioral signs of naloxone-precipitated morphine withdrawal”.
